≈ marks a conversion by molar mass, not a printed value. Read-outs that look alike come from different tables or passages of the source. Where a SMILES comes first, the peptide text is derived from it. Bridges are numbered along the chain shown (N, C = ends). [ ]: non-standard residue; d: D form. The star is where a group is joined. Heptanoyl(5-Me) = CCC(C)CCCC(=O)*; Dab = NCC[C@H](N)C(=O)O
What was measured:
[1] = test system: T1, Escherichia coli ATCC 35218; test: microbe, parasite or virus in culture; design: species or system bacteria; CLSI broth microdilution MIC, no visible growth
T1 construct: ATCC 35218

[2] = test system: T2, Escherichia coli 70122 CW-2007; test: microbe, parasite or virus in culture; design: species or system bacteria; CLSI broth microdilution MIC, no visible growth
T2 construct: 70122 CW-2007

Escherichia coli ec309 = test system: T3, Escherichia coli ec309; test: microbe, parasite or virus in culture; design: species or system bacteria; CLSI broth microdilution MIC, no visible growth
T3 construct: ec309

Escherichia coli ec308 = test system: T4, Escherichia coli ec308; test: microbe, parasite or virus in culture; design: species or system bacteria; CLSI broth microdilution MIC, no visible growth
T4 construct: ec308

Escherichia coli ec302 = test system: T5, Escherichia coli ec302; test: microbe, parasite or virus in culture; design: species or system bacteria; CLSI broth microdilution MIC, no visible growth
T5 construct: ec302

[3] = test system: T6, Escherichia coli ATCC BAA2471; test: microbe, parasite or virus in culture; design: species or system bacteria; CLSI broth microdilution MIC, no visible growth
T6 construct: ATCC BAA-2471

Escherichia coli ec305 = test system: T7, Escherichia coli ec305; test: microbe, parasite or virus in culture; design: species or system bacteria; CLSI broth microdilution MIC, no visible growth
T7 construct: ec305

[4] = test system: T8, Escherichia coli 95882 CW-2011; test: microbe, parasite or virus in culture; design: species or system bacteria; CLSI broth microdilution MIC, no visible growth
T8 construct: 95882 CW-2011

Escherichia coli ec310 = test system: T9, Escherichia coli ec310; test: microbe, parasite or virus in culture; design: species or system bacteria; CLSI broth microdilution MIC, no visible growth
T9 construct: ec310

E. coli ATCC 25922 [5] = test system: T10, E. coli ATCC 25922; test: microbe, parasite or virus in culture; design: species or system bacteria; CLSI broth microdilution MIC, no visible growth; settings: Escherichia coli
T10 construct: ATCC 25922

E. coli ATCC 25922 [6] = test system: T10, E. coli ATCC 25922; test: microbe, parasite or virus in culture; design: species or system bacteria; CLSI broth microdilution MIC, no visible growth; settings: Escherichia coli, ATCC25922, read-out: TO MIC
E. coli MC4100 acrAB = test system: T11, E. coli MC4100 acrAB; test: microbe, parasite or virus in culture; settings: Escherichia coli, MC4100ACRAB, read-out: MIC
T11 construct: MC4100 acrAB efflux-deficient

E. coli MC4100 lptD4213 = test system: T12, E. coli MC4100 lptD4213; test: microbe, parasite or virus in culture; settings: Escherichia coli, MC4100LPTD4213, read-out: MIC
T12 construct: MC4100 lptD4213 membrane-compromised

[7] = test system: T13, S. aureus ATCC 29740 (Newbould); test: microbe, parasite or virus in culture; design: species or system bacteria; CLSI broth microdilution MIC, no visible growth; settings: Staphylococcus aureus, ATCC29740, read-out: TO MIC
T13 construct: ATCC 29740 (Newbould)

E. coli MC4100 WT = test system: T14, E. coli MC4100 WT; test: microbe, parasite or virus in culture; design: species or system bacteria; CLSI broth microdilution MIC, no visible growth; settings: Escherichia coli, MC4100WT, read-out: TO MIC
T14 construct: MC4100 (ATCC 35695)

S. aureus ATCC 29740hemB = test: microbe, parasite or virus in culture; settings: Staphylococcus aureus, ATCC29740HEMB, read-out: MIC
[8] = test system: T15, Citrobacterfreundii ATCC 8090; test: organism not typed; design: species or system bacteria; CLSI broth microdilution MIC, no visible growth; settings: read-out: Table 5 IMI MIC
T15 construct: ATCC 8090

Work on `C[C@@H](O)[C@H]1C(=O)N2C(C(=O)O)=C(S[C@@H]3CN[C@H](C(=O)N(C)C)C3)[C@H](C)[C@H]12` [MEM, meropenem] yielded an MIC ([1]; ATCC35218, read-out: MEM MIC) of 0.06 µg/mL (≈ 0.156 µM), an MIC ([2]; 70122CW2007, read-out: MEM MIC) of 0.06 µg/mL (≈ 0.156 µM) and an MIC (Escherichia coli ec309; EC309, read-out: MEM MIC) of 0.06 µg/mL (≈ 0.156 µM). For the same molecule, the MIC (Escherichia coli ec308; EC308, read-out: MEM MIC) was 0.06 µg/mL (≈ 0.156 µM), the MIC (Escherichia coli ec302; EC302, read-out: MEM MIC) was 0.06 µg/mL (≈ 0.156 µM) and the MIC ([3]; ATCCBAA2471, read-out: MEM MIC) was greater than 32 µg/mL. For the same molecule, the MIC (Escherichia coli ec305; EC305, read-out: MEM MIC) was 0.06 µg/mL (≈ 0.156 µM), the MIC ([4]; 95882CW2011, read-out: MEM MIC) was 4 µg/mL (≈ 10.4 µM) and the MIC (Escherichia coli ec310; EC310, read-out: MEM MIC) was 0.06 µg/mL (≈ 0.156 µM). For the same molecule, the MIC (E. coli ATCC 25922 [5]; ATCC25922, read-out: MEM MIC) was 0.06 µg/mL (≈ 0.156 µM).

`CN(C)[C@@H]1C(O)=C(C(N)=O)C(=O)[C@@]2(O)C(O)=C3C(=O)c4c(O)cccc4[C@@](C)(O)[C@H]3C[C@@H]12` [TET, tetracycline] showed an MIC ([1]; ATCC35218, read-out: TET MIC) of 0.25 µg/mL (≈ 0.563 µM), an MIC (Escherichia coli ec309; EC309, read-out: TET MIC) of 2 µg/mL (≈ 4.5 µM) and an MIC (Escherichia coli ec308; EC308, read-out: TET MIC) of 128 µg/mL (≈ 288 µM). For the same molecule, the MIC (Escherichia coli ec302; EC302, read-out: TET MIC) was 2 µg/mL (≈ 4.5 µM), the MIC ([3]; ATCCBAA2471, read-out: TET MIC) was 128 µg/mL (≈ 288 µM) and the MIC (Escherichia coli ec305; EC305, read-out: TET MIC) was greater than 128 µg/mL. For the same molecule, the MIC ([4]; 95882CW2011, read-out: TET MIC) was 1 µg/mL (≈ 2.25 µM), the MIC (Escherichia coli ec310; EC310, read-out: TET MIC) was 2 µg/mL (≈ 4.5 µM) and the MIC (E. coli ATCC 25922 [5]; ATCC25922, read-out: TET MIC) was 1 µg/mL (≈ 2.25 µM).

Molecule `C[C@H]1CC[C@]2(NC1)O[C@H]1C[C@H]3[C@@H]4CC[C@H]5C[C@@H](O)CC[C@]5(C)[C@H]4CC[C@]3(C)[C@H]1[C@@H]2C` [TO, tomatidine] has an MIC (E. coli ATCC 25922 [6]) greater than 128 µg/mL, an MIC (E. coli MC4100 acrAB) greater than 128 µg/mL and an MIC (E. coli MC4100 lptD4213) greater than 128 µg/mL. For the same molecule, the MIC [7] was greater than 128 µg/mL, the MIC (E. coli MC4100 WT) was greater than 128 µg/mL and the MIC (S. aureus ATCC 29740hemB) was no more than 0.25 µg/mL.

`C[C@@H](O)[C@H]1C(=O)N2C(C(=O)O)=C(SCCNC=N)C[C@H]12` [IMI, imipenem] showed an MIC [8] of 1 µg/mL (≈ 3.34 µM).

`CCC(C)CCCC(=O)N[C@@H](CCN)C(=O)N[C@H](C(=O)N[C@@H](CCN)C(=O)N[C@H]1CCNC(=O)[C@H]([C@@H](C)O)NC(=O)[C@H](CCN)NC(=O)[C@H](CCN)NC(=O)[C@H](CC(C)C)NC(=O)[C@@H](CC(C)C)NC(=O)[C@H](CCN)NC1=O)[C@@H](C)O` (stereo partly drawn) [CST, colistin] ({Heptanoyl(5-Me)}-[Dab]T[Dab][Dab][Dab][dL]L[Dab][Dab]T; lactam 4-C) showed an MIC ([1]; ATCC35218, read-out: CST MIC) of 2 µg/mL (≈ 1.73 µM), an MIC ([2]; 70122CW2007, read-out: CST MIC) of 1 µg/mL (≈ 0.865 µM) and an MIC (Escherichia coli ec309; EC309, read-out: CST MIC) of 1 µg/mL (≈ 0.865 µM). For the same molecule, the MIC (Escherichia coli ec308; EC308, read-out: CST MIC) was 0.5 µg/mL (≈ 0.433 µM), the MIC (Escherichia coli ec302; EC302, read-out: CST MIC) was 0.5 µg/mL (≈ 0.433 µM) and the MIC ([3]; ATCCBAA2471, read-out: CST MIC) was 1 µg/mL (≈ 0.865 µM). It also gave an MIC (Escherichia coli ec305; EC305, read-out: CST MIC) of 0.5 µg/mL (≈ 0.433 µM), an MIC ([4]; 95882CW2011, read-out: CST MIC) of 0.5 µg/mL (≈ 0.433 µM) and an MIC (Escherichia coli ec310; EC310, read-out: CST MIC) of 1 µg/mL (≈ 0.865 µM). It also gave an MIC (E. coli ATCC 25922 [5]; ATCC25922, read-out: CST MIC) of 1 µg/mL (≈ 0.865 µM).
